What was measured:
[1] = system: K562 cells; experiment: CellTiter-Blue cell viability, K562; format: cell-based; details: Homo sapiens, 72 hrs exposure
Protocol: (§1) Anti-cancer efficacy of exemplary compounds of this application was assessed in vitro in different cancer cell lines. Cell viability was examined following treatment at various concentration of inhibitor (0.097656-50 μM) using a cell Titer-Blue cell viability assay. 1×10^4 cells (NHF, MV4-11, K562 and MOLM-13 cells)/well were plated in 96-well assay plates in culture medium. All cells were grown in DMEM, IMDM and RPMI-1640 supplemented with 10% FBS. After 24 hrs, test compounds and vehicle controls were added to appropriate wells so the final volume was 100 μl in each well. The cells were cultured for the desired test exposure period (72 hrs) at 37° C. and 5% CO2. The assay plates were removed from 37° C. incubator and 20 μl/well of CellTiter-Blue® Reagent was added. The plates were incubated using standard cell culture conditions for 1-4 hours and the plates were shaken for 10 seconds and record fluorescence at 560/590 nm.

[2] = system: MV4-11 cells; experiment: CellTiter-Blue cell viability, MV-4-11; format: cell-based; details: Homo sapiens, 72 hrs exposure
Protocol: as §1

[3] = system: MOLM-13 cells; experiment: CellTiter-Blue cell viability, MOLM-13; format: cell-based; details: Homo sapiens, 72 hrs exposure
Protocol: as §1

[4] = system: tubulin; experiment: Tubulin polymerization assay; format: biochemical; details: for % Inhibition: Vmax normalized to tubulin only control; for % D.O.P.: degree of polymerization relative to tubulin control
Protocol: A96-well half-area clear flat-bottom microplate (Corning® #3697) was pre-heated in a plate reader (Cytation 3, BioTek) at 37° C. for 15 minutes prior to the start of each assay. Tubulin polymerization buffer (80 mM PIPES pH 6.9, 2 mM MgCl2, 0.5 mM EGTA, 15% glycerol, 1 mM GTP) was prepared from stock solutions and placed on ice. Inhibitors were prepared to M concentrations in buffer (80 mM PIPES pH 6.9, 2 mM MgCl2, 0.5 mM EGTA, 5% DMSO) from DMSO stock solutions. After the assay plate was pre-warmed, 10 μL of inhibitor or buffer control was added to selected wells. Every assay contained a tubulin only negative control for normalization of data, and a batabulin positive control. The assay plate was incubated at 37° C. for 3 minutes. During this time, a frozen aliquot of tubulin (10 mg/mL) in buffer (80 mM PIPES pH 6.9, 2 mM MgCl2, 0.5 mM EGTA) was defrosted by placing in a room temperature water bath. Once thawed, 200 μL of tubulin was mixed with 420 μL ice cold tubulin polymerization buffer (3 mg/mL tubulin in 80 mM PIPES, pH 6.9, 2 mM MgCl2, 0.5 mM EGTA, 1 mM GTP, 10.2% glycerol). To a 96-well plate on ice, aliquots of 100 μL tubulin was added to each well. From this plate, 90 μL of tubulin was immediately pipetted into all sample wells of the warmed assay plate using a multi-channel pipette. The assay plate was immediately put in the reader at 37° C. and shook for 5 s with orbital shaking at medium speed. The reader recorded the absorbance at 340 nm every 15 s for 30 min.
The resulting absorbance curves were normalized by subtracting each data point by the absorbance at time 0.
The largest change in absorbance over the assay time course was also recorded and related to the tubulin control as the % degree of polymerization (% D.O.P.).

SMILES	IC50 [1] [µM]	IC50 [2] [µM]	IC50 [3] [µM]	% Inhibition [4]	% D.O.P. [4]
CN(C)S(=O)(=O)c1c(O)c(F)c(F)c(F)c1F [Compound I-3, 2,3,4,5-tetrafluoro-6-hydroxy-N,N-dimethylbenzenesulfonamide]	> 10	> 10			
COc1c(F)c(F)c(F)c(F)c1S(=O)(=O)N(C)C [Compound I-4, 2,3,4,5-tetrafluoro-6-methoxy-N,N-dimethylbenzenesulfonamide]		1 to 10			
CCOc1c(F)c(F)c(F)c(F)c1S(=O)(=O)N(C)C [Compound I-5, 2-ethoxy-3,4,5,6-tetrafluoro-N,N-dimethylbenzenesulfonamide]	> 10		> 10		
CN(C)S(=O)(=O)c1c(F)c(F)c(F)c(F)c1OCC(F)(F)F [Compound I-10, 2,3,4,5-tetrafluoro-N,N-dimethyl-6-(2,2,2-trifluoroethoxy)benzenesulfonamide]	> 10	1 to 10			
CN(C)S(=O)(=O)c1c(F)c(F)c(F)c(F)c1OCc1ccncc1 [Compound I-17, 2,3,4,5-tetrafluoro-N,N-dimethyl-6-(pyridin-4-ylmethoxy)benzenesulfonamide]	> 10		1 to 10		
CN(C)S(=O)(=O)c1c(F)c(F)c(F)c(F)c1OC(=O)C(C)(C)C [Compound I-20, 2-(N,N-dimethylsulfamoyl)-3,4,5,6-tetrafluorophenyl pivalate]	> 10		1 to 10		
COc1ccc(NS(=O)(=O)c2c(O)c(F)c(F)c(F)c2F)cc1F [Compound I-63, 2,3,4,5-tetrafluoro-N-(3-fluoro-4-methoxyphenyl)-6-hydroxybenzenesulfonamide]	> 10	> 10		A (<10%)	A (>85%)
COc1ccc(NS(=O)(=O)c2c(F)c(F)c(F)c(F)c2OC(F)F)cc1F [Compound I-65, 2-(difluoromethoxy)-3,4,5,6-tetrafluoro-N-(3-fluoro-4-methoxyphenyl)benzenesulfonamide]		≤ 0.1	0.1 to 1	C (>20%)	B (< 85%)
COc1ccc(NS(=O)(=O)c2c(F)c(F)c(F)c(F)c2OCCF)cc1F [Compound I-66, 2,3,4,5-tetrafluoro-N-(3-fluoro-4-methoxyphenyl)-6-(2-fluoroethoxy)benzenesulfonamide]		0.1 to 1	1 to 10	B (10-20%)	B (< 85%)
COc1ccc(NS(=O)(=O)c2c(F)c(F)c(F)c(F)c2OC2CCC2)cc1F [Compound I-69, 2-cyclobutoxy-3,4,5,6-tetrafluoro-N-(3-fluoro-4-methoxyphenyl)benzenesulfonamide]		0.1 to 1		A (<10%)	A (>85%)
COc1ccc(NS(=O)(=O)c2c(F)c(F)c(F)c(F)c2OC2CCCC2)cc1F [Compound I-70, 2-(cyclopentyloxy)-3,4,5,6-tetrafluoro-N-(3-fluoro-4-methoxyphenyl)benzenesulfonamide]		> 10		A (<10%)	A (>85%)
COc1ccc(NS(=O)(=O)c2c(F)c(F)c(F)c(F)c2Oc2ccc(F)cc2)cc1F [Compound I-80, 2,3,4,5-tetrafluoro-N-(3-fluoro-4-methoxyphenyl)-6-(4-fluorophenoxy)benzenesulfonamide]		0.1 to 1			
COc1ccc(CN(Cc2ccc(OC)cc2)S(=O)(=O)c2c(O)c(F)c(F)c(F)c2F)cc1 [Compound I-82, 2,3,4,5-tetrafluoro-6-hydroxy-N,N-bis(4-methoxybenzyl)benzenesulfonamide]				B (10-20%)	A (>85%)
COc1ccc(NS(=O)(=O)c2c(F)c(F)c(F)c(F)c2OC(F)(F)F)cc1F [Compound I-84, 2,3,4,5-tetrafluoro-N-(3-fluoro-4-methoxyphenyl)-6-(trifluoromethoxy)benzenesulfonamide]		≤ 0.1	≤ 0.1	C (>20%)	B (< 85%)
CCOc1c(F)c(F)c(F)c(F)c1S(=O)(=O)Nc1ccc(OC)c(F)c1 [Compound I-85, 2-ethoxy-3,4,5,6-tetrafluoro-N-(3-fluoro-4-methoxyphenyl)benzenesulfonamide]			≤ 0.1	A (<10%)	A (>85%)
CNc1c(F)c(F)c(F)c(F)c1S(=O)(=O)Nc1ccc(OC)c(F)c1 [Compound I-86, 2,3,4,5-tetrafluoro-N-(3-fluoro-4-methoxyphenyl)-6-(methylamino)benzenesulfonamide]		0.1 to 1		A (<10%)	A (>85%)
COc1ccc(CNc2c(F)c(F)c(F)c(F)c2S(=O)(=O)Nc2ccc(OC)c(F)c2)cc1 [Compound I-87, 2,3,4,5-tetrafluoro-N-(3-fluoro-4-methoxyphenyl)-6-((4-methoxybenzyl)amino)benzenesulfonamide]				A (<10%)	A (>85%)
COc1ccc(NS(=O)(=O)c2c(N)c(F)c(F)c(F)c2F)cc1F [Compound I-88, 2-amino-3,4,5,6-tetrafluoro-N-(3-fluoro-4-methoxyphenyl)benzenesulfonamide]				A (<10%)	A (>85%)
O=S(=O)(Nc1ccccc1)c1c(F)c(F)c(F)c(F)c1OC1CC1 [Compound I-95, 2-cyclopropoxy-3,4,5,6-tetrafluoro-N-phenylbenzenesulfonamide]		1 to 10			
O=S(=O)(Nc1ccc(F)cc1)c1c(F)c(F)c(F)c(F)c1OC1CC1 [Compound I-96, 2-cyclopropoxy-3,4,5,6-tetrafluoro-N-(4-fluorophenyl)benzenesulfonamide]		0.1 to 1		A (<10%)	A (>85%)
O=S(=O)(Nc1ccc(F)cc1F)c1c(F)c(F)c(F)c(F)c1OC1CC1 [Compound I-97, 2-cyclopropoxy-N-(2,4-difluorophenyl)-3,4,5,6-tetrafluorobenzenesulfonamide]		> 10			
O=S(=O)(Nc1cc(F)c(F)cc1F)c1c(F)c(F)c(F)c(F)c1OC1CC1 [Compound I-98, 2-cyclopropoxy-3,4,5,6-tetrafluoro-N-(2,4,5-trifluorophenyl)benzenesulfonamide]		> 10			
O=S(=O)(Nc1cccc(Cl)c1)c1c(F)c(F)c(F)c(F)c1OC1CC1 [Compound I-99, N-(3-chlorophenyl)-2-cyclopropoxy-3,4,5,6-tetrafluorobenzenesulfonamide]	> 10	> 10			
N#Cc1cccc(NS(=O)(=O)c2c(F)c(F)c(F)c(F)c2OC2CC2)c1 [Compound I-100, N-(3-cyanophenyl)-2-cyclopropoxy-3,4,5,6-tetrafluorobenzenesulfonamide]	> 10	> 10			
N#Cc1ccc(NS(=O)(=O)c2c(F)c(F)c(F)c(F)c2OC2CC2)cc1 [Compound I-101, N-(4-cyanophenyl)-2-cyclopropoxy-3,4,5,6-tetrafluorobenzenesulfonamide]		> 10			
COC(=O)c1ccc(NS(=O)(=O)c2c(F)c(F)c(F)c(F)c2OC2CC2)cc1 [Compound I-102, methyl 4-((2-cyclopropoxy-3,4,5,6-tetrafluorophenyl)sulfonamido)benzoate]	> 10	0.1 to 1			
O=S(=O)(Nc1ccc(Oc2ccccc2)cc1)c1c(F)c(F)c(F)c(F)c1OC1CC1 [Compound I-103, 2-cyclopropoxy-3,4,5,6-tetrafluoro-N-(4-phenoxyphenyl)benzenesulfonamide]		> 10			
O=S(=O)(Nc1cccc2ccccc12)c1c(F)c(F)c(F)c(F)c1OC1CC1 [Compound I-104, 2-cyclopropoxy-3,4,5,6-tetrafluoro-N-(naphthalen-1-yl)benzenesulfonamide]		> 10			
C#CCN(c1ccc(OC)c(F)c1)S(=O)(=O)c1c(F)c(F)c(F)c(F)c1OC1CC1 [Compound I-124, 2-cyclopropoxy-3,4,5,6-tetrafluoro-N-(3-fluoro-4-methoxyphenyl)-N-(prop-2-yn-1-yl)benzenesulfonamide]	1 to 10	1 to 10			
CN(C)S(=O)(=O)c1c(F)c(F)c(F)c(F)c1OCCF [Compound I-125, 2,3,4,5-tetrafluoro-6-(2-fluoroethoxy)-N,N-dimethylbenzenesulfonamide]	> 10	1 to 10			

Reference: US12559454B2, “Benzenesulfonamide derivatives and uses thereof” (2692372 Ontario, Inc., priority 2019, dated 2026)
